# Data taken from patent US5164295A, “Method for identifying amyloid protein-extracellular matrix protein affinity altering compounds” (The Upjohn Company, priority 1991, dated 1992).
# Legend:
# [1] = biological target: T1, HSPG binding to AAP751 /s (Homo sapiens, UniProt P05067); test: Effect of test compounds on intact HSPG binding to immobilized AAP751 /s (ELISA); parameters: effect of increasing concentration on degree of HSPG binding to AAP751 /s: dose or concentration left out as unconfirmed; conditions: for Activity: binding of intact HSPG, percentage ± SD of control: AAP751 /S, HSPG 2 μg/ml; for HSPG binding, % of control: AAP751
# T1 construct: maintained the entire extracellular portion of the AAP; made in house; host or cells: insect cells (recombinant baculovirus)
# Procedure: (§1) The assay comprised immobilizing AAP695 /s which was then exposed to free HSPG in the absence or presence of test compounds. Other aspects of the assay included exposing free HSPG to either immobilized AAP751 /s, or AAP770 /s, each in the absence or presence of test compounds. The assay was also performed with fibronectin as the immobilized protein in order to provide a positive control. In each case, a series of concentrations of HSPG and test compounds was used. Additionally, to determine whether or not the carbohydrate moiety of HSPG was involved in the binding to immobilized components, the carbohydrate moiety of HSPG was removed and assays were performed using the carbohydrate-free HSPG core protein. The test compounds used in experiments described here include heparin, dextran sulfate, chondroitin sulfate, dermatan sulfate, fibronectin, gelatin, bovine serum albumin (BSA), Ca^++ (CaCl2), Mg^++ (MgCl2), Mn^++ (MnCl2), Co^++ (Co(NO3)2), and Zn^++ (ZnCl2).
# (§2) The assay used in studying the interaction between HSPG and protein ligands was an ELISA technique. Briefly, polystyrene micro-titer plates (Linbro, Flow Lab Inc.) were coated with a 100 μl solution, containing 1 μg/ml of the protein of interest (one of the three forms of AAP or fibronectin) in 20 mM NaHCO3 buffer pH 9.6. After incubation overnight at 4° C., the plates were rinsed with 0.15M NaCl, 20 mM Tris-Cl pH 7.5 (TBS). The plates were then incubated with 150 μl of 1% BSA in TBS for 2 hours at 37° C. to block the residual hydrophobic surface on the wells. After rinsing with TBS containing 0.05% (w/v) Tween 20 (TBS-Tween), 100 μl of various concentrations of HSPG in TBS-Tween were added. The plates were left overnight at 4° C., to permit maximum binding of HSPG to the coated proteins. The plates were then washed extensively and incubated for 2 hours at 37° C., with 100 μl of anti-HSPG diluted in TBS-Tween containing 0.1% BSA. The plates were washed again and incubated for another 2 hours with 100 μl of goat anti-rabbit-IgG conjugated with alkaline phosphatase (1:2000 dilution) in TBS-Tween containing BSA as above. Finally, after further washing, the bound antibodies were detected by adding an alkaline phosphatase substrate solution (100 μl) containing 2 mg/ml p-nitrophenyl phosphate, 0.1 mM ZnCl2, 1 mM MgCl2 and 100 mM glycine pH 10. The plates were left at room temperature for 15-120 minutes depending on the protein tested. The enzyme reaction was stopped by addition of 50 μl of 2M NaOH. The absorbance of the released p-nitrophenol was measured at 405 nm with a Titertek Multiscan/MCC 340 (Flow Lab. Ltd.). The amounts of HSPG bound were determined by the net OD405 after substracting the OD from the blank wells in which the HSPG incubation step was omitted. When the actual amounts of HSPG bound were to be calculated, a set of standards (0.05-50 ng/well) of HSPG in NaHCO3 buffer were pre-coated into wells on the same plates as the test proteins. The incubations proceeded as described above omitting the incubation of the HSPG solution with the HSPG standard coated wells. The actual amounts of HSPG bound to the test proteins were calculated from the OD405 standard curve produced by the HSPG standards using a Titersoft II E.J.A. software program (Flow Lab. Ltd.).
# (§3) Heparin and dextran sulfate, respectively, were each used as test compounds to determine their effect on the HSPG binding to AAP forms and fibronectin. Various concentrations of heparin or dextran sulfate were added together with a constant amount of HSPG to wells coated with AAPs for fibronectin.
# [2] = biological target: T2, HSPG binding to AAP695 /s (Homo sapiens, UniProt P05067); test: Effect of test compounds on intact HSPG binding to immobilized AAP695 /s (ELISA); conditions: for Activity: binding of intact HSPG, percentage ± SD of control: AAP695 /S, HSPG 2 μg/ml; for HSPG binding, % of control: AAP695
# T2 construct: maintained the entire extracellular portion of the AAP; made in house; host or cells: insect cells (recombinant baculovirus)
# Procedure: as §1, §2, §3
# [3] = system: HSPG binding to AAP proteins and fibronectin; test: Effect of test compounds on HSPG binding, stated collectively for the immobilized proteins; conditions: for effect on HSPG binding to any AAP protein tested (negated sentence: 'Neither ... had any effect'): even at 4000 μg/ml
# Procedure: as §1, §2
# In addition to test compounds described above, other compounds were tested to determine their effect upon HSPG-AAP binding.
# [4] = system: HSPG binding to fibronectin; test: Effect of test compounds on intact HSPG binding to immobilized fibronectin (ELISA); parameters: species or system bovine; effect of increasing concentration on degree of HSPG binding to fibronectin: dose or concentration left out as unconfirmed; conditions: for Activity: binding of intact HSPG, percentage ± SD of control: Fibronectin, HSPG 2 μg/ml; for inhibition of HSPG binding to immobilized fibronectin: test compound 50 μg/ml; for HSPG binding, % of control: fibronectin
# Procedure: as §1
# Fibronectin (from bovine plasma), heparin (grade II from porcine intestinal mucosa, average molecular weight=[…]), heparan sulfate, chondroitin sulfate, dextran sulfate, BSA, and alkaline phosphatase substrate were obtained from Sigma, St. Louis, Mo. Alkaline phosphatase conjugated goat anti-rabbit IgG was obtained from Boehringer-Manneheim, and heparitinase from ICN Biochemicals.
# as §2, §3
# [5] = test compound 500 μg/ml (Table II)
molecule,measurement,setting,value
[Ca+2].[Cl-].[Cl-] [CaCl2],"Activity: binding of intact HSPG, percentage ± SD of control",[1]; addition 4 mM,105.5 ± 3.5%
same,"Activity: binding of intact HSPG, percentage ± SD of control",[2]; addition 4 mM,92.5 ± 7.7%
same,effect of divalent metal ion on HSPG binding,[3]; 3 mM,unaffected
same,"Activity: binding of intact HSPG, percentage ± SD of control",[4]; addition 4 mM,101.5 ± 2.1%
"O=[N+]([O-])[O-].O=[N+]([O-])[O-].[Co+2] [Co (NO3), Co(NO3)2]","Activity: binding of intact HSPG, percentage ± SD of control",[1]; addition 0.1 mM,91 ± 8.5%
same,"Activity: binding of intact HSPG, percentage ± SD of control",[2]; addition 0.1 mM,97.3 ± 2.5%
same,effect of divalent metal ion on HSPG binding,[3]; 0.1 mM,unaffected
same,"Activity: binding of intact HSPG, percentage ± SD of control",[4]; addition 0.1 mM,100 ± 14%
[Cl-].[Cl-].[Mg+2] [MgCl2],"Activity: binding of intact HSPG, percentage ± SD of control",[1]; addition 10 mM,102.5 ± 7.8%
same,"Activity: binding of intact HSPG, percentage ± SD of control",[2]; addition 10 mM,102.5 ± 6.4%
same,effect of divalent metal ion on HSPG binding,[3]; 10 mM,unaffected
same,"Activity: binding of intact HSPG, percentage ± SD of control",[4]; addition 10 mM,105 ± 9.9%
[Cl][Mn][Cl] [MnCl2],"Activity: binding of intact HSPG, percentage ± SD of control",[1]; addition 4 mM,106 ± 19.7%
same,"Activity: binding of intact HSPG, percentage ± SD of control",[2]; addition 4 mM,107 ± 18.3%
same,effect of divalent metal ion on HSPG binding,[3]; 4 mM,unaffected
same,"Activity: binding of intact HSPG, percentage ± SD of control",[4]; addition 4 mM,101.5 ± 9.2%
[Cl-].[Cl-].[Zn+2] [ZnCl2],"Activity: binding of intact HSPG, percentage ± SD of control",[1]; addition 0.1 mM,85.5 ± 9%
same,"Activity: binding of intact HSPG, percentage ± SD of control",[2]; addition 0.1 mM,31 ± 8.1%
same,inhibition of HSPG binding to AAP695 /s,[2]; test compound 0.1 mM,70%
same,"Activity: binding of intact HSPG, percentage ± SD of control",[4]; addition 0.1 mM,44 ± 14.6%
same,inhibition of HSPG binding to fibronectin,[4]; test compound 0.1 mM,55%
"Fibronectin: Fibronectin from bovine plasma (Sigma), added in solution as test compound","Activity: binding of intact HSPG, percentage ± SD of control",[1]; addition 50 μg/ml,103.7 ± 14.5%
same,"Activity: binding of intact HSPG, percentage ± SD of control",[2]; addition 50 μg/ml,76.3 ± 9.5%
same,interference with HSPG binding to the AAPs,"[3]; test compound 50 μg/ml in solution, the AAPs",only moderately interferes
same,"Activity: binding of intact HSPG, percentage ± SD of control",[4]; addition 50 μg/ml,33.4 ± 18.4%
same,inhibition of HSPG binding to immobilized fibronectin,[4],65%
Gelatin,"Activity: binding of intact HSPG, percentage ± SD of control",[1]; addition 50 μg/ml,60.2 ± 8.3%
same,inhibition of HSPG binding to AAP751 /s,[1]; test compound 50 μg/ml,40%
same,"Activity: binding of intact HSPG, percentage ± SD of control",[2]; addition 50 μg/ml,50.5 ± 18.4%
same,inhibition of HSPG binding to AAP695 /s,[2]; test compound 50 μg/ml,50%
same,"Activity: binding of intact HSPG, percentage ± SD of control",[4]; addition 50 μg/ml,28.5 ± 16.5%
same,inhibition of HSPG binding to immobilized fibronectin,[4],70%
chondroitin sulfate,"Activity: binding of intact HSPG, percentage ± SD of control",[1]; addition 4 mg/ml,110 ± 24.2%
same,"Activity: binding of intact HSPG, percentage ± SD of control",[2]; addition 4 mg/ml,110 ± 15.3%
same,effect on HSPG binding to any AAP protein tested (negated sentence: 'Neither ... had any effect'),[3],had any effect
same,"Activity: binding of intact HSPG, percentage ± SD of control",[4]; addition 4 mg/ml,107 ± 10.8%
dermatan sulfate,"Activity: binding of intact HSPG, percentage ± SD of control",[1]; addition 4 mg/ml,127 ± 30%
same,"Activity: binding of intact HSPG, percentage ± SD of control",[2]; addition 4 mg/ml,121 ± 14%
same,effect on HSPG binding to any AAP protein tested (negated sentence: 'Neither ... had any effect'),[3],had any effect
same,"Activity: binding of intact HSPG, percentage ± SD of control",[4]; addition 4 mg/ml,107 ± 20.6%
dextran sulfate,mode of inhibition of HSPG binding to AAP751 /s,[1],noncompetitive
same,"Activity: binding of intact HSPG, percentage ± SD of control",[1]; addition 500 μg/ml,63 ± 8.6%
same,"HSPG binding, % of control",[1]; test compound 31.2 μg/ml,74%
same,"HSPG binding, % of control",[1]; test compound 62.5 μg/ml,71%
same,"HSPG binding, % of control",[1]; test compound 125 μg/ml,67%
same,"HSPG binding, % of control",[1]; test compound 250 μg/ml,68%
same,"HSPG binding, % of control",[1]; [5],63%
same,effect of increasing concentration on degree of HSPG binding to AAP751 /s,[1]; concentration increased,did not further decrease
same,inhibition of HSPG binding to AAP751 /s,[1]; test compound 32 μg/ml,30%
same,mode of inhibition of HSPG binding to AAP695 /s,[2],probably competitive
same,"Activity: binding of intact HSPG, percentage ± SD of control",[2]; addition 500 μg/ml,8.5 ± 2.4%
same,"HSPG binding, % of control",[2]; test compound 31.2 μg/ml,14%
same,"HSPG binding, % of control",[2]; test compound 62.5 μg/ml,11%
same,"HSPG binding, % of control",[2]; test compound 125 μg/ml,9%
same,"HSPG binding, % of control",[2]; test compound 250 μg/ml,11%
same,"HSPG binding, % of control",[2]; [5],11%
same,inhibition of HSPG binding to AAP695 /s,[2]; test compound 32 μg/ml,about 85%
same,mode of inhibition of HSPG binding to fibronectin,[4],noncompetitive
same,"Activity: binding of intact HSPG, percentage ± SD of control",[4]; addition 500 μg/ml,71 ± 10.8%
same,effect of increasing concentration on degree of HSPG binding to fibronectin,[4]; concentration increased,did not further decrease
same,"HSPG binding, % of control",[4]; test compound 31.2 μg/ml,67%
same,"HSPG binding, % of control",[4]; test compound 62.5 μg/ml,70%
same,"HSPG binding, % of control",[4]; test compound 125 μg/ml,68%
same,"HSPG binding, % of control",[4]; test compound 250 μg/ml,63%
same,"HSPG binding, % of control",[4]; [5],60%
same,inhibition of HSPG binding to fibronectin,[4]; test compound 32 μg/ml,30%
